One data set addresses T1, 5-HT2C receptor (Homo sapiens, UniProt P28335).
T1 construct: host or cells: U2OS
The data set is described as follows: Human 5-HT2C functional assay (beta-arrestin2 recruitment, U2OS_HTR2C_β-Arrestin cells). It is filed as cell-based. Particulars: compounds used as acid addition salts; for EC50: U2OS_HTR2C_β-Arrestin cells, 1.5 h incubation, read-out: EC50 5-HT2C (potency in functional assay); for Emax: relative efficacy vs response to 10 µM 5-HT or maximal effect of 5-HT (100%). The method, then: The functional activity of compounds of formula I was assayed by incubation with U2OS_HTR2C_β-Arrestin cells (DiscoverX, 93-0289C3) to induce beta-arrestin2 recruitment to the 5-HT2C receptor. The agonist-induced recruitment and proximity of the receptor and beta-arrestin2 leads to complementation and formation of active β-galactosidase. The enzyme complementation results in enzyme activity, which is measured following the termination of the agonist incubation using DiscoveRx's detection reagent, which contains a chemiluminescent substrate which produces a high intensity signal. Cells were plated and a medium-change to a 1% serum containing medium was performed 24 h later. The next day, test compounds were added and incubated for 1.5 h before addition of detection reagent.
The response produced was measured and compared with the response produced by 10 [mu]M 5-HT or the maximal effect induced by 5-HT (defined as 100%) to which it was expressed as a percentage response (relative efficacy). Dose response curves were con-structed using Graphpad Prism (Graph Software Inc.) or using in house adapted software using a 4 parameter dose response model with variable slope (fit=(Bottom+(Top−Bottom)/(1+10^((LogEC50−x)*Hill Slope))res=(y−fit)). Results are compiled in the table below.
Background: Activated receptors often draw arrestin, which recruitment assays turn into a signal.

Data set [1] in a line: Metabolic stability: unbound intrinsic clearance in liver microsomes. It is filed as in vitro ADME. Conditions: rat; liver microsomes 0.25 mg protein/mL, 0.5 μM compound, pH 7.4, 37° C.; Cl int unbound=Cl int/fu mic; compounds used as acid addition salts; read-out: Cl int, mic unb. (r) (unbound intrinsic clearance). How it is done: Samples of the tested compounds (0.5 μM) were preincubated together with rat liver microsomes (0.25 mg of microsomal protein/mL) in 0.05 M potassium phosphate buffer of pH 7.4 in microtiter plates at 37° C. for 5 minutes. The reaction was started by adding NADPH (1.0 mM). After 0, 5, 10, 15, 20 and 30 minutes, an aliquot was removed, the reaction was cooled and stopped by adding twice the amount of quench solution consisting of acetonitrile/methanol 1:1, and containing […] carbutamide as internal standard. The samples were frozen until analyzed. The remaining concentration of undegraded test substance was determined by liquid chromatography-tandem mass spectrometry (LC-MS/MS). The half-life (t1/2) was determined from the gradient of the ratio of the signal of (test substance/internal standard)/unit time plot, allowing the calculation of the half-life of the test substance, assuming first order kinetics, from the decrease in the concentration of the compound with time. The microsomal clearance (mClint) was calculated as follows: mClint=((ln(2)/t 1/2)/Microsomal Protein Concentration (mg/ml))*1000, leading to the unit of uL/min/mg. The scaled clearance (mClin_scaled) was calculated as mCLint_scaled=m CLint*(Microsomal Yield (mg/kg BW))/1000000*60, leading to the units L/h/kg. The Microsomal Yield is defined by the specifics of the used microsomes. Calculations were modified from refer-ences: Di, The Society for Biomolecular Screening, 2003, 453-462; Obach, D M D, 1999 vol 27. N 11, 1350-1359.
A suspension of 0.25 mg/ml microsomal protein spiked with 0.5 μM of test compound was pipetted on one side of a HTDialysis device (HTDialysis LLC,37 Ledgewood Drive, Gales Fery Conn. 06335) separated by a membrane with a MWcut off 12-14 K. 50 mM K-Phosphate buffer (pH 7.4) was added on the other side of the well. After incubation at 37° C. for 4 h while shaking at 150 rpm, aliquots of both sides were taken, quenched with MeOH/ACN 1:1 and 0.2 μM of internal standard and frozen until analy-sis by LCMSMS.
Cl int unbound=Cl int/fu mic
The compounds were used in form of their respective acid addition salts.
On the technique in general: Liver microsomes are a subcellular fraction often used to study metabolism.

T1 sequence (P28335 33-458): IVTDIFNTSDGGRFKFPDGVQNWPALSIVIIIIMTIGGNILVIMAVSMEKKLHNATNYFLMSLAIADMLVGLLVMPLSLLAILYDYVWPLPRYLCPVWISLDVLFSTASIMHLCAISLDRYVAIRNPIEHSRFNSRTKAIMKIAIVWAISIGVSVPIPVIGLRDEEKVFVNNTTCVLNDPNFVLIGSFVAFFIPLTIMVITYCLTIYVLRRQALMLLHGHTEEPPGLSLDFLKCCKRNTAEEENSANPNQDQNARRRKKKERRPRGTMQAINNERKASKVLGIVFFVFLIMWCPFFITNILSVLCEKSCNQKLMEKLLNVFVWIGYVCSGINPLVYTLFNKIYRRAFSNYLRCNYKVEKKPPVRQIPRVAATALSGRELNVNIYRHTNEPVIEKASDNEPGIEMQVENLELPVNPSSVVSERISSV
T1 sequence (P32121 whole entry partner): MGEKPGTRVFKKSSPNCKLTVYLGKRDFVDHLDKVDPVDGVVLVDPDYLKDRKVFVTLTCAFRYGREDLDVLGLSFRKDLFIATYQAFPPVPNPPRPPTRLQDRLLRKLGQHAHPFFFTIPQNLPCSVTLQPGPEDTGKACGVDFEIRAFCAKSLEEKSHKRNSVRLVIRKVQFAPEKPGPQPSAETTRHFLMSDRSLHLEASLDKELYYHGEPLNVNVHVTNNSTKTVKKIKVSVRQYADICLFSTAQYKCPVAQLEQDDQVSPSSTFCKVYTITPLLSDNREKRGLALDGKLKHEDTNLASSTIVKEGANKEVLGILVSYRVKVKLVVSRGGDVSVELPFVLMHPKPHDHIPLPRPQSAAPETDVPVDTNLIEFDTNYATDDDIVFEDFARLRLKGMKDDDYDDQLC

As usually defined, the EC50 is the midpoint of the concentration-response curve. As a reminder, the Emax is the maximal effect, on the per cent scale that the assay sets. `COc1cc(OCCc2cccc(F)c2)c(F)cc1CNC(=O)[C@@H]1CCCN1` [Example 12, (2S)—N-[[5-Fluoro-4-[2-(3-fluorophenyl)ethoxy]-2-methoxy-phenyl]methyl]-pyrrolidine-2-carboxamide]: on 5-HT2C receptor, the EC50 fell in the range of 5 to 15 nM and the maximal effect (Emax) was greater than 70%. The CLint scaled at 0.5 μM in data set [1] lay within 1330 to 4170 mL/min/kg.
On to `COc1cc(OCCc2ccccc2F)c(F)cc1CNC(=O)[C@@H]1CCCN1` [Example 13, (2S)—N-[[5-Fluoro-4-[2-(2-fluorophenyl)ethoxy]-2-methoxy-phenyl]methyl]-pyrrolidine-2-carboxamide], for which, at 5-HT2C receptor, the EC50 was less than 5 nM and the Emax was greater than 70%. Also, the CLint scaled at 0.5 μM in data set [1] lay within 1330 to 4170 mL/min/kg.
Turning to `COc1cc(OCCc2ccc(C(F)(F)F)cc2)c(F)cc1CNC(=O)[C@@H]1CCCN1` [Example 14, (2S)—N-[[5-Fluoro-2-methoxy-4-[2-[4-(trifluoromethyl)phenyl]ethoxy]phenyl]-methyl]pyrrolidine-2-carboxamide], on 5-HT2C receptor, the EC50 was in the range of 5 to 15 nM and the Emax is greater than 70%. Moreover, the CLint scaled at 0.5 μM in data set [1] was 1330 to 4170 mL/min/kg.
The corresponding values for `COc1cc(OCc2ccc(C(F)(F)F)o2)c(F)cc1CNC(=O)[C@@H]1CCCN1` [Example 15, (2S)—N-[[5-fluoro-2-methoxy-4-[[5-(trifluoromethyl)-2-furyl]methoxy]phenyl]-methyl]pyrrolidine-2-carboxamide] are 5 to 15 nM, greater than 70% and 1330 to 4170 mL/min/kg.
Take `COc1cc(O[C@H]2CC[C@@H](F)CC2)c(F)cc1CNC(=O)[C@@H]1CCCN1` [Example 16, (S)—N-(5-Fluoro-4-((cis-4-fluorocyclohexyl)oxy)-2-methoxybenzyl)pyrrolidine-2-carboxamide]: on 5-HT2C receptor, the concentration for a half-maximal effect (EC50) lay within 15 to 30 nM and the Emax was greater than 70%. In data set [1], the CLint scaled at 0.5 μM was less than 500 mL/min/kg.
As for `COc1cc(O[C@H]2CC[C@H](F)CC2)c(F)cc1CNC(=O)[C@@H]1CCCN1` [Example 17, (S)—N-(5-Fluoro-4-((trans-4-fluorocyclohexyl)oxy)-2-methoxybenzyl)pyrrolidine-2-carboxamide], at 5-HT2C receptor, the EC50 is 5 to 15 nM and the Emax is greater than 70%. Also, the CLint scaled at 0.5 μM in data set [1] was less than 500 mL/min/kg.
`COc1cc(OC2CCC(F)(F)CC2)c(F)cc1CNC(=O)[C@@H]1CCCN1` [Example 18, (2S)—N-[[4-(4,4-Difluorocyclohexoxy)-5-fluoro-2-methoxy-phenyl]methyl]-pyrrolidine-2-carboxamide]: on 5-HT2C receptor, the half-maximal effective concentration (EC50) was in the range of 5 to 15 nM and the Emax was greater than 70%. In data set [1], the CLint scaled at 0.5 μM was less than 500 mL/min/kg.
As to `COc1cc(OCCC(F)(F)F)c(F)cc1CNC(=O)[C@@H]1CCCN1` [Example 19, (2S)—N-[[5-Fluoro-2-methoxy-4-(3,3,3-trifluoropropoxy)phenyl]methyl]pyrrolidine-2-carboxamide], on 5-HT2C receptor, the half-maximal effective concentration (EC50) fell in the range of 15 to 30 nM and the Emax was greater than 70%. Further, in data set [1], the CLint scaled at 0.5 μM is less than 500 mL/min/kg.
With `COc1cc(OCC(F)(F)C(F)F)c(F)cc1CNC(=O)[C@@H]1CCCN1` [Example 20, (2S)—N-[[5-Fluoro-2-methoxy-4-(2,2,3,3-tetrafluoropropoxy)phenyl]methyl]-pyrrolidine-2-carboxamide], on 5-HT2C receptor, the EC50 was less than 5 nM and the Emax was greater than 70%. Besides, the CLint scaled at 0.5 μM in data set [1] is less than 500 mL/min/kg.
The corresponding values for `COc1cc(OCC(F)(F)C(F)C(F)(F)F)c(F)cc1CNC(=O)[C@@H]1CCCN1` (stereo partly drawn) [Example 21, (2S)—N-[[5-Fluoro-4-(2,2,3,4,4,4-hexafluorobutoxy)-2-methoxy-phenyl]methyl]-pyrrolidine-2-carboxamide] are less than 5 nM, greater than 70% and less than 500 mL/min/kg.
The corresponding values for `COc1cc(OC(C)C(F)(F)C(F)F)c(F)cc1CNC(=O)[C@@H]1CCCN1` (stereo partly drawn) [Example 22, (2S)—N-[[5-Fluoro-2-methoxy-4-(2,2,3,3-tetrafluoro-1-methyl-propoxy)phenyl]-methyl]pyrrolidine-2-carboxamide] are 5 to 15 nM, greater than 70% and less than 500 mL/min/kg.
The corresponding values for `COc1cc(OCCCC(F)(F)F)c(F)cc1CNC(=O)[C@@H]1CCCN1` [Example 23, (2S)—N-[[5-Fluoro-2-methoxy-4-(4,4,4-trifluorobutoxy)phenyl]methyl]pyrrolidine-2-carboxamide] are less than 5 nM, greater than 70% and less than 500 mL/min/kg.
Consider `COc1cc(OCCC(F)(F)C(F)(F)F)c(F)cc1CNC(=O)[C@@H]1CCCN1` [Example 24, (2S)—N-[[5-Fluoro-2-methoxy-4-(3,3,4,4,4-pentafluorobutoxy)phenyl]methyl]-pyrrolidine-2-carboxamide], for which, on 5-HT2C receptor, the EC50 was 5 to 15 nM and the Emax is greater than 70%. Besides, the CLint scaled at 0.5 μM in data set [1] was less than 500 mL/min/kg.
On the same counts, the results for `COc1cc(OCC(C)CC(F)(F)F)c(F)cc1CNC(=O)[C@@H]1CCCN1` (stereo partly drawn) [Example 25, (2S)—N-[[5-Fluoro-2-methoxy-4-(4,4,4-trifluoro-2-methyl-butoxy)phenyl]methyl]-pyrrolidine-2-carboxamide] are less than 5 nM, greater than 70% and 500 to 1330 mL/min/kg.
The corresponding values for `COc1cc(OCC2CC2(F)F)c(F)cc1CNC(=O)[C@@H]1CCCN1` (stereo partly drawn) [Example 26, (2S)—N-[[4-[(2,2-Difluorocyclopropyl)methoxy]-5-fluoro-2-methoxy-phenyl]-methyl]pyrrolidine-2-carboxamide] are 15 to 30 nM, greater than 70% and less than 500 mL/min/kg.
Consider `COc1cc(OCC2(C(F)(F)F)CC2)c(F)cc1CNC(=O)[C@@H]1CCCN1` [Example 27, (2S)—N-[[5-Fluoro-2-methoxy-4-[[1-(trifluoromethyl)cyclopropyl]methoxy]phenyl]-methyl]pyrrolidine-2-carboxamide], for which, at 5-HT2C receptor, the EC50 was 5 to 15 nM and the Emax was greater than 70%. Besides, the CLint scaled at 0.5 μM in data set [1] is 500 to 1330 mL/min/kg.
As to `COc1cc(OC2CC(F)(F)C2)c(F)cc1CNC(=O)[C@@H]1CCCN1` [Example 28, (2S)—N-[[4-(3,3-Difluorocyclobutoxy)-5-fluoro-2-methoxy-phenyl]methyl]-pyrrolidine-2-carboxamide], at 5-HT2C receptor, the EC50 is 5 to 15 nM and the Emax was greater than 70%. For the same molecule, the CLint scaled at 0.5 μM in data set [1] was less than 500 mL/min/kg.
The corresponding values for `COc1cc(OCC2CC(F)(F)C2)c(F)cc1CNC(=O)[C@@H]1CCCN1` [Example 29, (2S)—N-[[4-[(3,3-Difluorocyclobutyl)methoxy]-5-fluoro-2-methoxy-phenyl]methyl]-pyrrolidine-2-carboxamide] are 5 to 15 nM, greater than 70% and less than 500 mL/min/kg.
On the same counts, the results for `COc1cc(OCC2CC(F)(F)C2(F)F)c(F)cc1CNC(=O)[C@@H]1CCCN1` (stereo partly drawn) [Example 30, (2S)—N-[[5-Fluoro-2-methoxy-4-[(2,2,3,3-tetrafluorocyclobutyl)methoxy]phenyl]-methyl]pyrrolidine-2-carboxamide] are less than 5 nM, greater than 70% and less than 500 mL/min/kg.
In the case of `COc1cc(OCC2CCC(F)(F)C2)c(F)cc1CNC(=O)[C@@H]1CCCN1` (stereo partly drawn) [Example 31, (2S)—N-[[4-[(3,3-Difluorocyclopentyl)methoxy]-5-fluoro-2-methoxy-phenyl]methyl]-pyrrolidine-2-carboxamide], at 5-HT2C receptor, the EC50 was 5 to 15 nM and the Emax was greater than 70%. Moreover, the CLint scaled at 0.5 μM in data set [1] is less than 500 mL/min/kg.

(Values after US20200039930A1, “PROLINE AMIDE COMPOUNDS AND THEIR AZETIDINE ANALOGUES CARRYING A SPECIFICALLY SUBSTITUTED BENZYL RADICAL” (AbbVie Deutschland GmbH & Co. KG, priority 2017, published 2020).)
